Reference: paper PMC10994559 (PLOS Neglected Tropical Diseases, 2024)

Test system: T. cruzi trypomastigotes
Experiment: T. cruzi viability, resazurin reduction
Format: cell-based, Trypanosoma cruzi
Details: Trypanosoma cruzi, 2.5 µM; read-out: viability, T.cruzi (2.5 µM)
Experimental: T. cruzi (Y strain) trypomastigotes were passaged in liver infusion broth media supplemented with tryptose, NaCl, Na2HPO4, KCl, glucose, hemin, Pen-Strep (1%), 10% FCS (pH: 7.2) and kept at 28°C.
(§1) Viability of T. brucei brucei BSF and T. cruzi trypomastigotes was assayed with fluorescence resazurin reduction assay, essentially as described above. […] Next, selected compounds were tested at 2.5 μM concentration, and promising compounds subjected to 18 concentrations dose response analyses. AN3057 and AmB were used as a control drug in T. brucei and T. cruzi, respectively.

SMILES	viability at 2.5 µM [%]
CC(C)(C)OC(=O)NC(Cc1ccccc1)C(O)CNc1ccc(C(C)(C)C)cc1 (centres unmarked) [LTC-1035]	63.9 ± 2.75

Same assay, conditions: Trypanosoma cruzi, 25 µM; read-out: viability, T.cruzi (25 µM)

SMILES	viability at 25 µM [%]
CC(C)(C)OC(=O)NC(Cc1ccccc1)C(O)CNc1ccc(C(C)(C)C)cc1 (centres unmarked) [LTC-1035]	25.6 ± 1.61

Test system: L. major axenic amastigotes
Experiment: L. major axenic amastigote viability, resazurin reduction
Details: Leishmania major, read-out: viability, L.major amastigote (25 µM)
Experimental: L. major LV561(MHOM/IL/67/LRC-L137 JERICHO II) amastigotes were passaged in Grace insect medium supplemented with NaHCO3, 0.1% amikin and 20% of FCS (pH: 5.4) and kept at 33°C.
Exponential growth phase promastigotes of L. major or L. infantum and axenic amastigotes (L. major) were harvested and seeded in 384 well plates (white, non-transparent, tissue culture treated, flat bottom; Corning) (0.5x10^5 cells per well). Compounds were pre-dispensed into the plate with an Echo 650 acoustic dispenser (Beckman Coulter). After 72h incubation, resazurin was added (1:10 v/v) from a […] stock in PBS, followed by incubation for six hours. Then, fluorescence intensity was measured using a microplate reader (Synergy H1, BioTek) with excitation filter: 550 nm and emission filter: 590 nm. Efficient compounds were selected for the next round of viability assay with 2.5 μM concentrations of the compounds. […] All experiments were performed with AmB as a positive control drug in parallel.
Axenic amastigotes, the relevant form that persists in the infected host, were generated in the lab through established procedures, employing harsh pH (pH 5) and high temperature (33°C) conditions.

SMILES	viability at 25 µM [%]
CC(C)(C)OC(=O)NC(Cc1ccccc1)C(O)CNc1ccc(C(C)(C)C)cc1 (centres unmarked) [LTC-1035]	27.7 ± 0.6

Same assay, conditions: Leishmania major, read-out: viability, L.major amastigote(2.5 µM)

SMILES	viability at 2.5 µM [%]
CC(C)(C)OC(=O)NC(Cc1ccccc1)C(O)CNc1ccc(C(C)(C)C)cc1 (centres unmarked) [LTC-1035]	71.4 ± 0.91

Test system: E. histolytica
Experiment: E. histolytica viability, ATP luminescence (Cell titer glo)
Format: cell-based, Entamoeba histolytica
Details: Entamoeba histolytica; read-out: viability, E.histolytica (2.5 µM)
Experimental: Entamoeba histolytica (strain B2-5) was passaged in TY-1 medium (Trypticase peptone BBL, Yeast extract BBL, glucose, NaCl, K2HPO4, KH2PO4, cysteine, ascorbic acid, ammonium iron citrate, adult bovine serum, Diamond tween 80, penicillin G, amikacin (pH:6.8)) and kept in 37°C incubator in completely filled tubes with closed lid.
Viability of E. histolytica was assayed via a luminescence assay based on ATP quantification in the live cells. Briefly, 2.5x10^4 cell/ml were exposed to 25 μM of compounds in 96 well plates (non-transparent, tissue culture treated, flat bottom; SPL Life Sciences) in triplicate for 48h. Plates were incubated in sealed anaerobic bags (Oxoid AGS) together with an Anaerogen compact bag (Thermo Scientific) and anaerobic indicator (Thermo Scientific) at 37°C. Then, Cell titer glo reagent (Promega) was added to the reaction (1:5) according to manufacturers’ instruction. After 15 min of orbital shaking, followed by 10 min incubation at RT, ATP-bioluminescence was quantified at RT using a Synergy H1 plate reader (Synergy H1, BioTek). Metronidazole was included as control drug in all the assays for E. histolytica. Test compounds indicating significant growth reduction in the primary screen were subjected to potency determination. These secondary screens were essentially carried out as detailed above, but with a 9 to 16-point concentration range of the test compounds spanning 0.01–100 μM.

SMILES	viability at 2.5 µM [%]
CC(C)(C)OC(=O)NC(Cc1ccccc1)C(O)CNc1ccc(C(C)(C)C)cc1 (centres unmarked) [LTC-1035]	48.5 ± 2.26

Same assay, conditions: Entamoeba histolytica; read-out: viability, E.histolytica (25 µM)

SMILES	viability at 25 µM [%]
CC(C)(C)OC(=O)NC(Cc1ccccc1)C(O)CNc1ccc(C(C)(C)C)cc1 (centres unmarked) [LTC-1035]	101 ± 21.2

Test system: L. infantum promastigotes
Experiment: L. infantum promastigote viability, resazurin reduction
Format: cell-based, Leishmania infantum
Details: Leishmania infantum; 2.5 µM; sheet LTC_compound_viability; value ± spread; read-out: viability, L. infantum promastigote (2.5 µM)
From the text: (§2) The infectivity of the parasites was boosted by passaging in Balb/c mice and culturing the infected lymph nodes after six weeks. L. infantum (MHOM / BR / 76 / M4192) parasite was passaged in the same media formulation with 0.5% urine.

SMILES	viability at 2.5 µM [%]
CC(C)(C)OC(=O)NC(Cc1ccccc1)C(O)CNc1ccc(C(C)(C)C)cc1 (centres unmarked) [LTC-1035]	68.3 ± 1.6

Same assay, conditions: Leishmania infantum; 25 µM; sheet LTC_compound_viability; value ± spread; read-out: viability, L. infantum promastigote (25 µM)

SMILES	viability at 25 µM [%]
CC(C)(C)OC(=O)NC(Cc1ccccc1)C(O)CNc1ccc(C(C)(C)C)cc1 (centres unmarked) [LTC-1035]	0.84 ± 0.54

Test system: T. brucei brucei BSF
Experiment: T. brucei BSF viability, resazurin reduction
Format: cell-based, Trypanosoma brucei brucei
Details: Trypanosoma brucei, 2.5 µM; read-out: viability, T.brucei (2.5 µM)
Experimental: T. brucei brucei (strain 427 Lister) blood stream form (BSF) parasites were passaged in complete HMI-9 media supplemented with 10% FCS, Pen-Strep (0.1%) and 2-mercaptoethanol (0.014 v/v) and kept in a 37° C CO2 incubator in filter-cap flasks.
as §1

SMILES	viability at 2.5 µM [%]
CC(C)(C)OC(=O)NC(Cc1ccccc1)C(O)CNc1ccc(C(C)(C)C)cc1 (centres unmarked) [LTC-1035]	71.2 ± 5.31

Same assay, conditions: Trypanosoma brucei, 25 µM; read-out: viability, T.brucei (25 µM)

SMILES	viability at 25 µM [%]
CC(C)(C)OC(=O)NC(Cc1ccccc1)C(O)CNc1ccc(C(C)(C)C)cc1 (centres unmarked) [LTC-1035]	2.22 ± 0.96

Same assay, conditions: Trypanosoma brucei, read-out: EC50 T. brucei BSF, dose response, triplicate; ± SD (Table 2) / ± SE (S3 Table)

SMILES	EC50 [µM]
CC(C)(C)OC(=O)NC(Cc1ccccc1)C(O)CNc1ccc(C(C)(C)C)cc1 (centres unmarked) [LTC-1035]	2.9 ± 1.7

Test system: intracellular L. infantum amastigotes
Experiment: Parasite rescue assay (intramacrophage, J774 infected with L. infantum)
Format: cell-based, Leishmania infantum
Details: J774, 25 µM; intracellular amastigote; read-out: viability, intracellular L. major amastigote (25 µM)

SMILES	viability at 25 µM [%]
CC(C)(C)OC(=O)NC(Cc1ccccc1)C(O)CNc1ccc(C(C)(C)C)cc1 (centres unmarked) [LTC-1035]	11.4 ± 1.86

Test system: Murine macrophage cells (J774)
Experiment: Cytotoxicity assay J774, resazurin reduction
Format: cell-based
Details: Mus musculus, J774, 72 h, cytotoxicity, 72 h
Experimental: (§3) Mammalian cell lines (J774 and HepG2) were passaged in RPMI media supplemented with MEM, Pen-Strep (1%) and 10% FCS. Cultures were kept at 37°C incubator with 5% CO2 in filter-cap flasks.
(§4) Murine macrophage cells (J774) and human hepatocyte carcinoma HepG2 cells were seeded at 0.5x10^5 cell/well in 384 well plates in triplicate, exposed to serial dilution of compounds, dispensed using an Echo 650 acoustic dispenser (Labcyte). After incubation for 72 h at 37°C, 5% CO2, cell viability was determined using fluorescence resazurin reduction assay (λEx: 550 nm; λEm: 590 nm).

SMILES	EC50 [µM]
CC(C)(C)OC(=O)NC(Cc1ccccc1)C(O)CNc1ccc(C(C)(C)C)cc1 (centres unmarked) [LTC-1035]	> 25

Same assay, conditions: cytotoxicity, 72 h

SMILES	EC50 [µM]
CC(C)(C)OC(=O)NC(Cc1ccccc1)C(O)CNc1ccc(C(C)(C)C)cc1 (centres unmarked) [LTC-1035]	> 16

Test system: not listed separately
Experiment: Cytotoxicity assay J774, resazurin reduction
Format: cell-based, murine
Details: mouse, J774 macrophage cells; 2.5 µM; read-out: viability, J774 (2.5 µM)
Experimental: as §3, §4

SMILES	viability at 72 h, 2.5 µM [%]
CC(C)(C)OC(=O)NC(Cc1ccccc1)C(O)CNc1ccc(C(C)(C)C)cc1 (centres unmarked) [LTC-1035]	92.3 ± 5.33

Same assay, conditions: mouse, J774 macrophage cells; 25 µM; read-out: viability, J774 (25 µM)

SMILES	viability at 72 h, 25 µM [%]
CC(C)(C)OC(=O)NC(Cc1ccccc1)C(O)CNc1ccc(C(C)(C)C)cc1 (centres unmarked) [LTC-1035]	95.4 ± 11.3

Test system: L. major promastigotes
Experiment: L. major promastigote viability, resazurin reduction
Format: cell-based, Leishmania major
Details: Leishmania major, 72 h, read-out: viability, L.major promastigote (25 µM)
From the text: as §2

SMILES	viability at 25 µM [%]
CC(C)(C)OC(=O)NC(Cc1ccccc1)C(O)CNc1ccc(C(C)(C)C)cc1 (centres unmarked) [LTC-1035]	89.5 ± 1.08

Same assay, conditions: Leishmania major; 25 µM; read-out: viability, L.major promastigote (25 µM)

SMILES	viability at 25 µM [%]
CC(C)(C)OC(=O)NC(Cc1ccccc1)C(O)CNc1ccc(C(C)(C)C)cc1 (centres unmarked) [LTC-1035]	2.19 ± 1.75

Test system: intracellular L. infantum amastigotes
Experiment: Parasite rescue assay (intramacrophage, J774 infected with L. infantum)
Format: cell-based, Leishmania infantum
Details: Leishmania infantum, J774, read-out: EC50 L. infantum rescue assay, intramacrophage (J774), 18 concentrations
Experimental: After 24 h incubation, cells were washed five times with serum free RPMI and exposed to a serial dilution of test compounds, prepared using an acoustic dispenser (Echo 650, Labcyte), in RPMI (2% FCS). After two days, cells were washed thrice, and 20 μl of 0.05% SDS in RPMI was added upon removal of the supernatant. Upon incubation under orbital shaking for 30 seconds, cell lysis was stopped by addition of 180 μl M199 medium supplemented with 10% FCS. […] Then, fluorescence intensity of the samples was measured with a microplate reader (Synergy H1, BioTek) with λEx: 550 nm and λEm: 590 nm. Percent of viability was calculated according to cell only and media controls.
J774A.1 cells (J774) were infected with L. infantum metacyclic promastigotes. […] After controlled lysis of the infected macrophages, the released parasites were quantified using a resazurin based viability assay.

SMILES	EC50 [µM]
CC(C)(C)OC(=O)NC(Cc1ccccc1)C(O)CNc1ccc(C(C)(C)C)cc1 (centres unmarked) [LTC-1035]	6.7 ± 1.7

Same assay, conditions: read-out: EC50 L. infantum rescue assay; intramacrophage (J774), 18 concentrations

SMILES	EC50 [µM]
CC(C)(C)OC(=O)NC(Cc1ccccc1)C(O)CNc1ccc(C(C)(C)C)cc1 (centres unmarked) [LTC-1035]	6.67 ± 1.7
